Consider 32 compounds from US20050004167A1, “Branched chain amino acid-dependent aminotransferase inhibitors and their use in the treatment of neurodegenerative diseases” (WARNER-LAMBERT COMPANY LLC, priority 2001, published 2005).

pIC50: −log10 of the molar value. Where “and” joins values, the source holds several entries; their conditions need not be identical. Equal entries are not always repeated.

One data set deals with T1, human Branched Chain Amino Acid Aminotransferase cytosolic form (hBCATc) (Homo sapiens, UniProt P54687).
T1 construct: made in house; host or cells: E. coli BL21(DE3)
T1 sequence (P54687 1-386): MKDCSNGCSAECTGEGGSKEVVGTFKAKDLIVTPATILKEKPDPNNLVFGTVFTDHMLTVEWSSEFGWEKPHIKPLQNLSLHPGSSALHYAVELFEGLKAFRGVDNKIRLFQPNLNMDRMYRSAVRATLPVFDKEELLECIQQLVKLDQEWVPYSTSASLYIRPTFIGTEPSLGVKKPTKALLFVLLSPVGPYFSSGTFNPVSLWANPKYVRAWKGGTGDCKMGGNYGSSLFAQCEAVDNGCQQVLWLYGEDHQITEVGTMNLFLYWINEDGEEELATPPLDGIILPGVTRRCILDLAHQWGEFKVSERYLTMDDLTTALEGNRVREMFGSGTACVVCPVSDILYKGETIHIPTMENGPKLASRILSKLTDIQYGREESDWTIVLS
Briefly: In vitro coupled enzyme assay (glutamate dehydrogenase, NADH formation), human BCATc. In kind it is biochemical. The conditions noted are these: recombinant human BCATc, 37° C., 25 mM phosphate buffer pH 7.8; several values in a cell = repeat determinations; read-out: RhBCATc. Here is the method:
In vitro enzyme assay—human Branched Chain Amino Acid Aminotransferase cytosolic form (hBCATc) and mitochondrial form (hBCATm) as well as rat BCAT cytosolic form were assayed at 37° C. in 25 mM phosphate buffer pH 7.8. In addition, 2 mM DTT and 12.5 mM […] were added to the assay mixture. A coupling enzyme assay was used to monitor the production of glutamate. The formation of NADH from NAD+ at […] was followed on a 96-well plate Molecular Devices plate reader.
The following components were used in this coupled assay: 4 mM ADP, 1 mM NAD+, 750 μM L-Leucine, 500 μM α-ketoglutarate, 10 μM pyridoxal phosphate, 1 unit glutamate dehydrogenase, and 1.25 μg of the appropriate BCAT enzyme. Inhibitions by compounds were assayed by adding various concentrations to this coupled assay procedure as a DMSO stock up to a 5% v/v DMSO/buffer ratio.
Enzyme Preparation—humanBCATc and ratBCATc were expressed in BL21(DE3) cells. A growing culture of cells was induced with 1 mM IPTG at room temperature overnight. These cells were harvested by centrifugation at 10,000 g for 20 minutes. The supernatant was discarded, and the cells were stored at −80° C. until needed. The protein was purified by the following method. The cell paste was resuspended in extraction buffer (0.1 M phosphate, pH 8.0, with 0.01 M Tris-HCL and 5 mM TCEP and then lysed on a French Press at 1000 psi. The lysate was centrifuged at 10,000 g for 15 minutes, and the pellet was discarded. The supernatant was loaded onto a Hitrap Chelating column previously charged with 0.1 M NiSO4 and washed with 3 to 4 column volumes of extraction buffer. The column was then washed with 0.01 Tris, pH 7.5, 10% glycerol, 150 mM NaCl, 5 mM TCEP for two column volumes. The column was then further washed with two column volumes of 0.1 M phosphate, pH 6.0, 0.01 M Tris, 10% glycerol and 750 mM NaCl. Finally, the column was washed with two column volumes of the same buffer plus 50 mM imidazole. The BCAT enzyme was then eluted with the same buffer but with 350 mM imidazole. The eluant was then dialyzed overnight against 10 mM phosphate buffer pH 8.0, 10% glycerol, and 5 mM TCEP. The dialyzed protein was then loaded onto a Q-sepharose column and eluted using a salt gradient. Active fractions were collected and further purified on a Superose-12 column to yield pure BCAT protein.
As to `O=C(NNS(=O)(=O)c1ccccc1)c1cccc2oc3ccccc3c12` [Example 12, 1-Dibenzofurancarboxylic acid 2-(phenylsulfonyl)hydrazide], the pIC50 was 4.04. Same read-out and setting: the same measure for `O=C(NNS(=O)(=O)c1ccccc1)c1cccc2cccnc12` [Example 21, Quinoline-8-carboxylic acid 2-(phenylsulfonyl)hydrazide]: less than 4.00. On the same count and under the same terms, next, `COc1cccc2cc(C(=O)NNS(=O)(=O)c3ccccc3C(F)(F)F)oc12` [Example 54, 2-Benzofurancarboxylic acid, 7-methoxy-, 2-[[2-(trifluoromethyl)phenyl]-sulfonyl]hydrazide]: 5.42.

With `COc1cccc2cc(C(=O)NNS(=O)(=O)c3cccc(C)c3)oc12` [Example 55, 2-Benzofurancarboxylic acid, 7-methoxy-, 2-[(3-methylphenyl)sulfonyl]hydrazide], the pIC50 was 5.45 and 5.48. On the same count and under the same terms, next, `COc1c(C(=O)NNS(=O)(=O)c2ccccc2)oc2ccc(Cl)cc12` [Example 78, 2-Benzofurancarboxylic acid, 5-chloro-3-methoxy, 2-(phenylsulfonyl)hydrazide]: 5.43; `Cc1ccc(S(=O)(=O)NNC(=O)c2cnc3ccccc3c2)cc1` [Example 127, 3-Quinolinecarboxylic acid, 2-[(4-methylphenyl)sulfonyl]hydrazide]: 4.77. Same read-out and setting: the same measure for `Cc1cccc(S(=O)(=O)NNC(=O)c2ccc3ncccc3c2)c1` [Example 128, 6-Quinolinecarboxylic acid, 2-[(3-methylphenyl)sulfonyl]hydrazide]: 4.92. The same measure, in the same setting: next, `Cc1cccc(S(=O)(=O)NNC(=O)c2cnc3ccccc3c2)c1` [Example 129, 3-Quinolinecarboxylic acid, 2-[(3-methylphenyl)sulfonyl]hydrazide]: 4.89; `O=C(NNS(=O)(=O)c1cccc(Cl)c1)c1ccc2ncccc2c1` [Example 130, 6-Quinolinecarboxylic acid, 2-[(3-chlorophenyl)sulfonyl]hydrazide]: 4.66. Take `O=C(NNS(=O)(=O)c1cccc(Cl)c1)c1cnc2ccccc2c1` [Example 131, 3-Quinolinecarboxylic acid, 2-[(3-chlorophenyl)sulfonyl]hydrazide]: the pIC50 was 4.21.

As for `O=C(NNS(=O)(=O)c1cccc(F)c1)c1ccc2ncccc2c1` [Example 132, 6-Quinolinecarboxylic acid, 2-[(3-fluorophenyl)sulfonyl]hydrazide], the pIC50 is 4.40.

In the case of `O=C(NNS(=O)(=O)c1cccc(F)c1)c1cnc2ccccc2c1` [Example 133, 3-Quinolinecarboxylic acid, 2-[(3-fluorophenyl)sulfonyl]hydrazide], the pIC50 was less than 4.00. On the same count and under the same terms, next, `O=C(NNS(=O)(=O)c1cc(Cl)cc(Cl)c1)c1ccc2ncccc2c1` [Example 138, 6-Quinolinecarboxylic acid, 2-[(3,5-dichlorophenyl)sulfonyl]hydrazide]: less than 4.00; `O=C(NNS(=O)(=O)c1cc(Cl)cc(Cl)c1)c1cnc2ccccc2c1` [Example 139, 3-Quinolinecarboxylic acid, 2-[(3,5-dichlorophenyl)sulfonyl]hydrazide]: 4.39. With `O=C(NNS(=O)(=O)c1ccccc1)c1nccc2ccccc12` [Example 152, Isoquinoline-1-carboxylic acid 2-(phenylsulfonyl)hydrazide], the pIC50 was less than 4.00.

Test system in the next data set: not given
Experiment: not given
Conditions: not given
As a reminder, the melting point is the temperature of the solid-liquid transition. The compound `CN(C)c1ccc2[nH]c(C(=O)NNS(=O)(=O)c3ccccc3)cc2c1.Cl` displayed a melting point of 251.6 to 252.7 °C. `CN(C)c1ccccc1S(=O)(=O)NNC(=O)c1ccc2oc3ccccc3c2c1.Cl` displayed a melting point of 103.2 to 103.9 °C. Still for that read-out and setting: next, `CN(C)c1ccc2oc(C(=O)NNS(=O)(=O)c3ccccc3)cc2c1.Cl`: 218.3 to 218.9 °C; `CN(C)c1ccc(S(=O)(=O)NNC(=O)c2ccc3oc4ccccc4c3c2)cc1.Cl`: 187.6 to 188.8 °C. On the same count and under the same terms, the same measure for `O=C(NNS(=O)(=O)c1ccccc1)c1ccc2c(c1)OCO2` (hydrate or solvate) [Example 10, Benzo[1,3]dioxole-5-carboxylic acid 2-(phenylsulfonyl)hydrazide]: 156 to 158 °C; for `O=C(NNS(=O)(=O)c1ccccc1)c1ccc2ncccc2c1` (hydrate or solvate) [Example 13, Quinoline-6-carboxylic acid 2-(phenylsulfonyl)hydrazide]: 211 to 214 °C. Still for that read-out and setting: the same measure for `O=C(NNS(=O)(=O)c1ccccc1)c1cccc2cccnc12` (hydrate or solvate) [Example 21, Quinoline-8-carboxylic acid 2-(phenylsulfonyl)hydrazide]: 173 to 175 °C; for `O=C(NNS(=O)(=O)c1ccccc1)c1cc2cc([N+](=O)[O-])ccc2o1` (hydrate or solvate) [Example 34, 2-Benzofurancarboxylic acid, 5-nitro-, 2-(phenylsulfonyl)hydrazide]: 207.7 to 208.1 °C; for `COc1cccc2cc(C(=O)NNS(=O)(=O)c3ccccc3C(F)(F)F)oc12` (hydrate or solvate) [Example 54, 2-Benzofurancarboxylic acid, 7-methoxy-, 2-[[2-(trifluoromethyl)phenyl]-sulfonyl]hydrazide]: 156.8 to 157.6 °C. In turn, `COc1cccc2cc(C(=O)NNS(=O)(=O)c3cccc(C)c3)oc12` (hydrate or solvate) [Example 55, 2-Benzofurancarboxylic acid, 7-methoxy-, 2-[(3-methylphenyl)sulfonyl]hydrazide] gave a melting point of 170.8 to 171.8 °C. Same read-out and setting: next, `COc1ccc2cc(C(=O)NNS(=O)(=O)c3ccccc3)oc2c1` (hydrate or solvate) [Example 56, 2-Benzofurancarboxylic acid, 6-methoxy-, 2-(phenylsulfonyl)hydrazide]: 224.9 to 225.8 °C; `COc1ccc2oc(C(=O)NNS(=O)(=O)c3ccccc3)c(OC(C)C)c2c1` (hydrate or solvate) [Example 57, 2-Benzofurancarboxylic acid, 5-methoxy-3-(1-methylethoxy), 2-(phenylsulfonyl)-hydrazide]: 127 to 129 °C. As to `COc1cc(OC)c2cc(C(=O)NNS(=O)(=O)c3ccccc3)oc2c1` (hydrate or solvate) [Example 60, 2-Benzofurancarboxylic acid, 4,6-dimethoxy-, 2-(phenylsulfonyl)hydrazide], the melting point fell in the range of 230.6 to 231 °C. The same measure, in the same setting: the same measure for `COc1c(C(=O)NNS(=O)(=O)c2ccccc2)oc2c(OC)cccc12` (hydrate or solvate) [Example 61, 2-Benzofurancarboxylic acid, 3,7-dimethoxy-, 2-(phenylsulfonyl)hydrazide]: 177.9 to 179.6 °C; for `COc1c(C(=O)NNS(=O)(=O)c2ccccc2C(F)(F)F)oc2c(OC)cccc12` (hydrate or solvate) [Example 62, 2-Benzofurancarboxylic acid, 3,7-dimethoxy-, 2-[(2-trifluoromethylphenyl)-sulfonyl]hydrazide]: 190.6 to 192.3 °C; for `COc1c(C(=O)NNS(=O)(=O)c2ccc(F)cc2)oc2c(OC)cccc12` (hydrate or solvate) [Example 63, 2-Benzofurancarboxylic acid, 3,7-dimethoxy-, 2-[(4-fluorophenyl)sulfonyl]-hydrazide]: 190.9 to 191.1 °C. Still for that read-out and setting: the same measure for `COc1c(C(=O)NNS(=O)(=O)c2cccc(C)c2)oc2c(OC)cccc12` (hydrate or solvate) [Example 64, 2-Benzofurancarboxylic acid, 3,7-dimethoxy-, 2-[(3-methylphenyl)sulfonyl]-hydrazide]: 179.4 to 180.9 °C.
